Results on four molecules are retold here after article PMC8448819, “The Arabidopsis MIK2 receptor elicits immunity by sensing a conserved signature from phytocytokines and microbes” (Nature Communications, 2021).

No end group written: not given here.

As usually defined, the Kd is the free concentration of one partner at which half of the binding sites on the other are occupied at equilibrium, for simple one-to-one binding. Low readings indicate a tighter complex, high ones a looser complex. In general, stoichiometry N refers to a count of units in the complex or per binding partner.

The test system of assay [1] is mik2-1 and mik2-2 mutant seedlings. It counts as in vivo, Arabidopsis thaliana. Conditions: in vivo.
For assay [2], the system named is PEPR1^ECD-MIK2^TK/pepr1,2 transgenic seedlings. The experiment in a line: Root growth assay, PEPR1^ECD-MIK2^TK/pepr1,2 seedlings. The assay is classed as in vivo, Arabidopsis thaliana. Conditions: PEPR1^ECD-MIK2^TK/pepr1,2 compared to WT. From the text:
The BAK1 (AT4G33430), SERK4 (AT2G13790), BIK1 (AT2G39660), and MIK2 (AT4G08850) coding sequences (CDSs) were amplified by PCR from Col-0 cDNA using the primers containing BamHI at the 5′ end and StuI at the 3′ end. The PCR products were digested by BamHI and StuI, followed by ligation into the pHBT-FLAG or pHBT-HA vector to generate pHBT-35S::BAK1-FLAG, pHBT-35S::SERK4-FLAG, pHBT-35S::BIK1-HA, pHBT-35S::MIK2-HA, and pHBT-35S::MIK2-GFP constructs[24],[41],[62]. MIK2^ECD (residues 1–707) and BAK1^ECD (residues 1–220) were amplified by PCR from Col-0 cDNA and cloned into pFastBac-1 vector with a C-terminal 6× HIS tag[25],[62]. The fusion protein vectors carrying MIK2^ECD or BAK1^ECD were used for insect cell expression. To obtain the binary vector pCAMBIA1300-35S::RLK7, a 2907-bp RLK7 CDS was PCR-amplified from WT cDNA using gene-specific primers with KpnI and SalI at the 5′ and 3′ ends, respectively, followed by KpnI and SalI digestion and ligation into the pCAMBIA1300 vector. […]
Cold stratified seeds were surface-sterilized with 70% (v/v) ethanol for 5 min and were sown on ½MS plates with or without peptides at indicated concentrations. Ten-day-old seedlings grown on plates vertically in a growth chamber were photographed, and the root lengths of seedlings were measured using Image J (http://rsb.info.nih.gov/ij/).

A short description of assay [3]: In vitro protein cleavage assay and LC-MS/MS. It counts as biochemical, Arabidopsis thaliana. The protocol:
Recombinant HIS-SCOOP12 proteins were expressed in E. coli BL21 strain with an isopropyl β-D-1-thiogalactopyranoside (IPTG)-inducible system and purified with Ni-NTA agarose (QIAGEN, #166048536) in buffer containing 50 mM Tris-HCl pH 7.5 and 300 mM NaCl. For in vitro protein cleavage assay, 5 μg of purified HIS-SCOOP12 proteins were incubated with 10 μL protein extracts isolated from 10-day-old Arabidopsis WT seedlings or protein extraction buffer (50 mM HEPES, pH 7.4, 10 mM EDTA, and 1× protease inhibitor cocktail, Sigma) following a published protocol[36] for 5 h at room temperature with rotation. […] The processed SCOOP12 bands were cut from SDS-PAGE for LC-MS/MS analysis.
The processed SCOOP12 bands were in-gel digested following a published protocol, except that digestion was conducted with Lys-C (Promega, Madison, WI, USA). The digested peptides were desalted using micro ZipTip mini-reverse phase (Millipore). In brief, after wetting (with 50% acetonitrile) and equilibrating a ZipTip (with 0.1% formic acid), the peptides were bound to C-18 material. A subsequent washing step with 0.1% formic acid was followed by a final elution with 60% acetonitrile and 0.1% formic acid. The samples were lyophilized to dryness using a labconco speedvac (Centrivap, Labconco Inc., USA). The resulting peptides were resuspended in 0.1% formic acid for mass spectrometric analysis. The mass spectrometry data acquisition was performed on an EASY-nLC 1200 ultraperformance liquid chromatography system (Thermo Scientific Inc., San Jose, CA) connected to an Orbitrap Q-Exactive HF instrument equipped with a nano-electrospray source (Thermo Scientific Inc., San Jose, CA)[67]. The peptide samples were loaded to a C18 trapping column (75 μm i.d. × 2 cm, Acclaim PepMap® 100 particles with 3 μm size and 100 Å pores) and then eluted using a C18 analytical column (75 μm i.d. × 25 cm, 2 μm particles with 100 Å pore size). […] All MS/MS samples were analyzed using Mascot Daemon (Matrix Science, London, UK; version 2.4.0). […]

Assay [4] concerns the target T1, MIK2^ECD, extracellular LRR domain of MALE DISCOVERER 1-INTERACTING RECEPTOR-LIKE KINASE 2 (Arabidopsis thaliana, UniProt Q8VZG8 44-707).
T1 construct: also called MIK2^ECD-6×HIS
T1 sequence (looked up): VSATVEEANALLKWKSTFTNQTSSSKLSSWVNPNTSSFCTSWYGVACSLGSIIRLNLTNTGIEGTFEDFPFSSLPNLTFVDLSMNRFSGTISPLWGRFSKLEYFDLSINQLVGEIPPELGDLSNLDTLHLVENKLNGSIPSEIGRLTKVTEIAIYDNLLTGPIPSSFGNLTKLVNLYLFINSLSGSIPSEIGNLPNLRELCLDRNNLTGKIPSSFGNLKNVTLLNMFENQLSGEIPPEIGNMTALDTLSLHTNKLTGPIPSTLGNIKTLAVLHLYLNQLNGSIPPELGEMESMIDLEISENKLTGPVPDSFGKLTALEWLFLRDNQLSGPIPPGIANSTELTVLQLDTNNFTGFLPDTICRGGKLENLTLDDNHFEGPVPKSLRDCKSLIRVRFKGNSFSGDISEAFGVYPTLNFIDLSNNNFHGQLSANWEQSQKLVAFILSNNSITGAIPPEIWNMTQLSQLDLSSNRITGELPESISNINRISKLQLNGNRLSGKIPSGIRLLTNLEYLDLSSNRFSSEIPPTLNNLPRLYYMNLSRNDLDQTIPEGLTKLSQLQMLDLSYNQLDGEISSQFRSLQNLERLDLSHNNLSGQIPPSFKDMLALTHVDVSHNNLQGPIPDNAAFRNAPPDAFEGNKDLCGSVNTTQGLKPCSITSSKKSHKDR
Briefly: SPR. The note with it: both partners purified.

The target of assay [5] is T1, MIK2^ECD, extracellular LRR domain of …. The experiment in a line: ITC; MicroCal ITC200, 25 °C, 200 mM HEPES pH 7.0, 100 mM NaCl; 600 µM peptide injected into 30 µM MIK2^ECD in the cell. The note with it: both partners purified.

For “ATKVKAKQRGKEKVSSGRPGQHN [Pep1, plant endogenous peptide recognized by PEPR1/PEPR2]”, in assay [1], the “response of mik2-1 to Pep1” value is recorded as “responded to the Pep1 treatment similarly to WT plants”. In addition, in assay [2], the “brown roots and darkened root-hypocotyl junctions” value was “brown roots, and darkened root-hypocotyl junctions”; the “root growth retardation” value is “severe root growth retardation”.

With “HIS-SCOOP12: recombinant HIS-SCOOP12 proteins expressed in E. coli (LMGSGASGPVRSSQSSQAGGRFNDADPIAIDYGKY; also: His tag (not in given chain); UniProt B3H7I1 44-78, looked up)”, the “proteolytic processing by Arabidopsis protein extracts” value in assay [3] (5 μg HIS-SCOOP12, seedling extract, 5 h, room temperature, pH 7.4) is reported as “proteolytically processed upon incubation with Arabidopsis protein extracts”. Further, in assay [3] (Nano-LC-MS/MS), the cleavage site result is reported as “cleaved after arginine 43 (R^43)”. In addition, the “identified SCOOP12 fragment” value in assay [3] (Nano-LC-MS/MS, in-gel Lys-C digestion) is listed as “from leucine 44 (L^44) to lysine 78 (Y^78)”.

B1: SCOOP12^SS/AA peptide (peptide)
chain: PVRSAQASQAGGR
modifications: Synthetic peptide. Exact limits are in Supplementary Data 4 (not shown); same conventional 13-mer as m1, with both SxS-motif serines changed to alanine.
As to B1, binding in assay [4] was characterised by a dissociation constant (Kd) of 3480 µM.

B2: SCOOP12 peptide (SERINE-RICH ENDOGENOUS PEPTIDE 12) (peptide)
chain: PVRSSQSSQAGGR
modifications: Synthetic peptide, unlabelled in ITC/SPR; an N-terminal TAMRA version was used for in vivo binding. Exact limits are in Supplementary Data 4 (not shown). Limits taken as the commonly used 13-mer …
For B2, in assay [5], the affinity, expressed as Kd, was 3.18 µM and the “stoichiometry N” value was about 1. Besides, the Kd in assay [4] amounted to 1.78 µM.
